From patent US11585779B2, “Biosensor and method of using the same for evaluation of antioxidant capacity” (Nanjing Agricultural University, priority 2017, dated 2023)

System: macrophage RAW264.7
Experiment: Evaluation of antioxidant capacity with macrophage RAW264.7 biosensor (PMA stimulation, differential pulse voltammetry)
Assay type: cell-based
Settings: 0.6% solution in absolute ethanol; 100 ng/mL PMA, 10 min; 0.1 M PBS
Description: The electrochemical experiments in 3) can be a differential pulse voltammetry (DPV), and the DPV conditions can be as follows: scanning range: -0.2 to 0.6 V, amplitude: 0.05 V.
The relative antioxidant capacity value in 5) can be calculated by the following equation:
[formula] where RAC is the relative antioxidant capacity value, I0 is the peak current obtained in the presence of 100 ng/mL PMA, Is is the peak current in the presence of the test sample, and I is the peak current in the absence of PMA.
immersing a third biosensor in Tyrode's buffer at 37° C. for 10 min, washing the third biosensor with PBS buffer for 3 times, connecting the third biosensor to a third electrochemical workstation, and conducting an electrochemical experiment of the third biosensor in a solution containing 1.0 mM Fe(CN)6^3−, 1.0 mM Fe(CN)6^4− or 0.1 M PBS, recording the current signal, reading the peak current and marking as I.
In the following examples, the differential pulse voltammetry is selected as the electrochemical experiment method.
Positive control: a first biosensor was immersed in Tyrode's buffer at 37° C. (preparation of Tyrode's solution: 1000 mL Tyrode's solution: NaCl 8.0 g, 10% KCl 2.0 mL (0.2 g), 10% MgSO4.7H2O 2.6 mL (0.26 g), 5% NaH2PO4.2H2O 1.3 mL (0.065 g), NaHCO3 1.0 g, 1 M CaCl2 1.8 mL (0.2 g), glucose 1.0 g), and PMA was then added to a concentration of 100 ng/mL. 10 min later, the first biosensor was washed with PBS buffer for 3 times (phosphate buffered saline) at pH=7.4, and then was connected to the electrochemical workstation. The first biosensor was electrochemically detected in a solution containing 1.0 mM Fe(CN)6^3−, and the current signal was recorded and the peak current was read as I0=84.6 μA.
Blank control: a third biosensor was immersed in Tyrode's buffer at 37° C. […] The […] was electrochemically detected in a solution containing 1.0 mM Fe(CN)6^3−, and the current signal was recorded and the peak current was read as I=21.5 μA. […]
3) Electrochemical experiment: the second biosensor was used for electrochemical experiment in a PBS solution containing 1.0 mM Fe(CN)6^3−. Subsequently, the current signal and the peak current ls1 were recorded and read, respectively. […]
3) Electrochemical experiment: the biosensor IV was used for electrochemical experiment in a solution containing 1.0 mM Fe(CN)6^4−. Subsequently, the current signal was recorded and the peak current Is2 was read, where Is2=24.7 μA. […]
3) Electrochemical experiment: the biosensor was used for electrochemical experiment in a solution containing 0.1 M (mol/L) PBS. Subsequently, the current signal was recorded and the peak current Is3 was read, where Is3=26.5 μA. […]

With `O=C1O[C@H]([C@@H](O)CO)C(O)=C1O` [VC, Vitamin C] the “peak current Is4” value was 25.3 μA.

For `Cc1c(C)c2c(c(C)c1O)CC[C@@](C)(CCC[C@H](C)CCC[C@H](C)CCCC(C)C)O2` [VE, Vitamin E], the “peak current Is3” value was 26.5 μA, the “relative antioxidant value (RAC3)” value was 92.2% and the “relative antioxidant value (RAC4)” value was 94.2%.
